The values that follow come from ChEMBL document CHEMBL3822417, “Predictive proteochemometric models for kinases derived from 3D protein field-based descriptors” (Medchemcomm, 2016).

Structures are written as SMILES.

The target in test [1] is Serine/threonine-protein kinase 10 (Homo sapiens, UniProt O94804). The experiment in a line: Inhibition of STK10 (unknown origin).
For test [2], the target named is RAC-beta serine/threonine-protein kinase (Homo sapiens, UniProt P31751). The experiment in a line: Inhibition of AKT2 (unknown origin).
Chain of RAC-beta serine/threonine-protein kinase (P31751 whole entry): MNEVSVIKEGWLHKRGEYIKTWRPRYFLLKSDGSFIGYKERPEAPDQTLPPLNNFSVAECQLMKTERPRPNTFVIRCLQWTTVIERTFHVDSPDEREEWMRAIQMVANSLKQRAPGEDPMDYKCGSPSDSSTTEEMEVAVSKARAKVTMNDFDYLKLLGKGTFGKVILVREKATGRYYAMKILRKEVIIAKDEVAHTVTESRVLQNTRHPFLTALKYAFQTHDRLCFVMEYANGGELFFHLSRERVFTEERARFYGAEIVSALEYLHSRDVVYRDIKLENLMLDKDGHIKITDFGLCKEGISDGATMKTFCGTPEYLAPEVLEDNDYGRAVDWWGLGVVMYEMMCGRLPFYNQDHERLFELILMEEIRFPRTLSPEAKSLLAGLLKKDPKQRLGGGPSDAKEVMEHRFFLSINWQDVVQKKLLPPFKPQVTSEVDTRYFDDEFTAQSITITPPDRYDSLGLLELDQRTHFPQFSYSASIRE

Chain of Serine/threonine-protein kinase 10 (O94804 whole entry): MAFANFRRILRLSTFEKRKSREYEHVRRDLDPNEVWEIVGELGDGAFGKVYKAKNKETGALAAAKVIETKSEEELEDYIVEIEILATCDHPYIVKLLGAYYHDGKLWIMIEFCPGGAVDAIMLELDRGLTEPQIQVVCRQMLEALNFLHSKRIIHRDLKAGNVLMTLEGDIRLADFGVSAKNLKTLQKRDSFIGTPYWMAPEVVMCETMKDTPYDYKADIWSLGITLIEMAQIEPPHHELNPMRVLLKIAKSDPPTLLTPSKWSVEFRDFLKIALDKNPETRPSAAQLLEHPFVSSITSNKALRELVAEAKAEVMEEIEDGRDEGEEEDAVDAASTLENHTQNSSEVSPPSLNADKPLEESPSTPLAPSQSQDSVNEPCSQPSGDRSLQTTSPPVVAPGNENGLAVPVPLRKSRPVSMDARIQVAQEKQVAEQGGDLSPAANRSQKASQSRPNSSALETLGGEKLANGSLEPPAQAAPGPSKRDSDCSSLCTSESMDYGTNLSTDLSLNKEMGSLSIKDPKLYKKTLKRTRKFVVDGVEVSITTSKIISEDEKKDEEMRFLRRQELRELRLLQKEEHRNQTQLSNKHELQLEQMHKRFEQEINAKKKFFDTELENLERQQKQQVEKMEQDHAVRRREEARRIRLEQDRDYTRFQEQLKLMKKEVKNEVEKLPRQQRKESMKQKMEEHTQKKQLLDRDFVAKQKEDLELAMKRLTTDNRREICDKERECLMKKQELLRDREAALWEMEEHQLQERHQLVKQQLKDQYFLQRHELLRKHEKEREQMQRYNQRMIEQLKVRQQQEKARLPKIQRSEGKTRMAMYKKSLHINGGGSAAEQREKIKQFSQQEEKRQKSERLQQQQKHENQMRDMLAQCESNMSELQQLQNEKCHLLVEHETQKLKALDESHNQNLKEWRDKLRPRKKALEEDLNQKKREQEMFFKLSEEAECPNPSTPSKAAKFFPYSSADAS

The compound `Oc1ccc(-c2nc(-c3ccncc3)c(-c3ccc(F)cc3)[nH]2)cc1` [SB-202190] returned a Ki in test [1] above 10 µM. With `COc1cc(N2CCC(N3CCN(C)CC3)CC2)ccc1Nc1ncc(Cl)c(Nc2ccccc2S(=O)(=O)C(C)C)n1` [TAE-684], the Ki in test [2] is above 10 µM.
